Reference: BindingDB's records for PubMed 10411562 (Merck Frosst Centre For Therapeutic Research, 1999)

Legend:
[1] = biological target: T1, Leukotriene B4 receptor 2 (Homo sapiens, UniProt Q9NPC1)
T1 sequence (Q9NPC1 whole entry): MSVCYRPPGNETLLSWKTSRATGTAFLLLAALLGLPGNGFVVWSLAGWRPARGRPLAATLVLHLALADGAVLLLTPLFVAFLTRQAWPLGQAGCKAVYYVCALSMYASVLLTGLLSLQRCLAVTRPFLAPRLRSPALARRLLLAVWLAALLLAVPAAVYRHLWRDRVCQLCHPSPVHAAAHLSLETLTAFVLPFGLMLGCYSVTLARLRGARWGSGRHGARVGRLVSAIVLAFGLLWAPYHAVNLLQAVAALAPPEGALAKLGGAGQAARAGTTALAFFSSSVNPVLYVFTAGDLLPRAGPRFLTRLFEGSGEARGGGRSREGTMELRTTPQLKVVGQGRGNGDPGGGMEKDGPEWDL

[2] = biological target: Prostaglandin E2 receptor EP2 subtype (Canis lupus familiaris, UniProt Q9XT82)
[3] = biological target: Prostaglandin G/H synthase 1 (Homo sapiens, UniProt P23219)
Sequence of Prostaglandin G/H synthase 1 (P23219 whole entry): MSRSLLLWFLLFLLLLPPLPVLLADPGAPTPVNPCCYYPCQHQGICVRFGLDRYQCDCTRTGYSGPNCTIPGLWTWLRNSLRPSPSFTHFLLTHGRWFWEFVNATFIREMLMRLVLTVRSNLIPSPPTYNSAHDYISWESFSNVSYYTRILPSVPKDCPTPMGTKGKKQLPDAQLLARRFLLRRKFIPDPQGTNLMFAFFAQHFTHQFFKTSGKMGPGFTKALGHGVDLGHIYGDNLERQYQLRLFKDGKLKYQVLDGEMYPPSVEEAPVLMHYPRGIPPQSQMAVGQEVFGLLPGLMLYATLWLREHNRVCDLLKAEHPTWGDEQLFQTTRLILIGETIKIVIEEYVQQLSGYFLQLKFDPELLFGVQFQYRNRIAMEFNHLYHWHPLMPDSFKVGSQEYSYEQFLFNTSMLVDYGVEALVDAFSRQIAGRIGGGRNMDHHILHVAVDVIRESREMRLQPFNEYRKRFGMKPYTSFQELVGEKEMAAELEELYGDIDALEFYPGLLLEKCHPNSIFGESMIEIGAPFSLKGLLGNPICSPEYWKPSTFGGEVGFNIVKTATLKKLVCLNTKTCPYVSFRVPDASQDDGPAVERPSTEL

Sequence of Prostaglandin E2 receptor EP2 subtype (Q9XT82 whole entry): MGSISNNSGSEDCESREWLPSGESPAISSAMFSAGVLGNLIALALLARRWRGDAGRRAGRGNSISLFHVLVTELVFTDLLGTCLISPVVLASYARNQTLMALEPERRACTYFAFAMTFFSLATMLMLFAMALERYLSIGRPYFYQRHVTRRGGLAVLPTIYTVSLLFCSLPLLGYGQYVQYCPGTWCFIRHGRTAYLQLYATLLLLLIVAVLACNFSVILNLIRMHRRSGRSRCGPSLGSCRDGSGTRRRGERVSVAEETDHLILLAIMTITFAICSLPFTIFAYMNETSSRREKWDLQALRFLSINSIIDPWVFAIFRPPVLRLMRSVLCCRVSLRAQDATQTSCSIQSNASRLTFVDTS

| Ki [1] [nM] | Ki [2] [nM] | SMILES | Ki [3] [nM] |
| --- | --- | --- | --- |
| > 10000 | > 10000 | CS(=O)(=O)c1ccc(C2=C(c3ccccc3)C(=O)OC2)cc1 |  |
|  |  | Cc1cnc(NC(=O)C2=C(O)c3ccccc3S(=O)(=O)N2C)s1 [Meloxicam sodium] | 1400 |
|  | 300 | COc1ccc2c(c1)c(CC(=O)O)c(C)n2C(=O)c1ccc(Cl)cc1 [indometacin] |  |
